Data taken from patent US8901118B2, “Compounds and methods for kinase modulation, and indications therefor” (Plexxikon Inc., priority 2010, dated 2014).

Assays:
CYP3A4(BFC) = CYP3A4(BFC) (Homo sapiens, UniProt P08684); experiment: CYP3A4(BFC) inhibition; type: in vitro ADME; conditions: CYP3A4, substrate BFC; read-out: Cyp IC50 3A4(BFC)
Procedure: (§1) CYP (Cytochrome P450) enzymes are the major drug metabolizing enzymes present in the liver. The inhibition of CYP enzyme activity (IC50) for each of CYP1A2, CYP2C19, CYP2C9, CYP2D6, CYP3A4(BFC) and CYP3A4(BQ) is determined for compounds, where inhibition of metabolism of a known substrate leads to a decrease in the fluorescence of the metabolized product. The fluorescence of the product is monitored as a function of compound concentration. Compounds are dissolved in DMSO to a concentration of 100 mM. These are diluted 1 μL into 82 μL of acetonitrile. An 11 μL aliquot of this solution is then added to 204 μL of cofactor mix (1.3% NADPH Regeneration system Solution A, 1.04% NADPH Regeneration system Solution B from BD Biosciences, 5% acetonitrile and 0.05% DMSO). These are then serially diluted 1:1 (160 μL to 160 μL co-factor mix) for a total of 10 points. A 10 μL aliquot of this final mixture is dispensed into 384 well assay plates and incubated for 10 minutes at 37° C. […] Assay plates are incubated at 37° C. (CYP1A2-15 min; CYP2C9-45 min; CYP2C19, 2D6 and 3A4-30 min) and read in a Tecan Safire 2 plate reader (CYP1A2, 2C19 and 3A4 409 ex/460 em; CYP2C9 and 2D6 409 ex/530 em). The signal versus compound concentration is used to determine the IC50. The enzymes and substrates for this assay are obtained from BD Biosciences.

CYP1A2 = biological target: T1, CYP1A2 (Homo sapiens, UniProt P05177); experiment: CYP1A2 inhibition (fluorescent substrate CEC); type: in vitro ADME; conditions: read-out: Cyp IC50 1A2
T1 sequence (P05177 1-516): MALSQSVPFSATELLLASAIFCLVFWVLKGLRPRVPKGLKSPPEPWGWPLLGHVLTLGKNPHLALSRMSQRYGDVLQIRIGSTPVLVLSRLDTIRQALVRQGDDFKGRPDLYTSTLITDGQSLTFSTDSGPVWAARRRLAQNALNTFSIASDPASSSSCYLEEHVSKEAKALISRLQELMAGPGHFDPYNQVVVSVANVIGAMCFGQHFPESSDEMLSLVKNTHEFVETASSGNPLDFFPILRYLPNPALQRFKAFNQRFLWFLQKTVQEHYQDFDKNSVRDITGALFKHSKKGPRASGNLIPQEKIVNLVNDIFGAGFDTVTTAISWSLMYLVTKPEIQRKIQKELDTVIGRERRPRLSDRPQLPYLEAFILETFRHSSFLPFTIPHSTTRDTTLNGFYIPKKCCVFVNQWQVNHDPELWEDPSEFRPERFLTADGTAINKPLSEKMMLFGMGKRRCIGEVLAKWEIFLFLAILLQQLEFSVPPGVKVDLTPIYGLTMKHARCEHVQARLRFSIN
Procedure: as §1

[1] = Relative solubility by turbidity in aqueous buffers (pH 1.5, 4.5, 6.8, 7.4); type: physicochemical; conditions: for turbidity threshold (L, M, H) 1.4: pH 1.5 (SGF); for turbidity threshold (L, M, H) 4.5: pH 4.5 (SIF); for turbidity threshold (L, M, H) 6.8: pH 6.8 (SIF); for turbidity threshold (L, M, H) 7.4: pH 7.4 (HEPES)
Procedure: As an indication of relative solubility, the turbidity of compounds in aqueous solutions is assessed. To assess possible compound properties in different physiological compartments, such as stomach, intestine, and blood, a series of aqueous buffers with varying pH is used. Thus each compound is diluted into four different physiologically relevant buffers and solution turbidity is measured by spectrophotometry.
Compounds are dissolved at a concentration of 25 mM in dimethyl sulfoxide, then serially diluted 1:1 into a 96 well plate, diluting 10 times in pure dimethyl sulfoxide, with the final well of each row a dimethyl sulfoxide blank. In an assay plate, 99 μL of appropriate buffer is added to each well, and 1 μL of each sample dilution is added to the buffer, achieving a range of final total concentrations in aqueous solutions having different pH. The buffers used are Simulated Gastric Fluid (SGF-pH 1.5) 0.5M NaCl, pH 1.5; Simulated Intestinal fluid (SIF-pH 4.5 and pH 6.8) 0.05M NaH2PO4, pH 4.5 and 6.8; and Hepes Buffer (HEPES-pH 7.4) 10 mM HEPES, 150 mM NaCl, pH 7.4. Control compounds pyrene, estriol and propranolol HCl are also assessed. Plates are spun and then mixed for 1 minute, and the absorbance is read using a Tecan Safire II to read wavelengths in the visible range (490, 535, and 650 nm) at four locations per well, reflecting the degree of turbidity present. The average optical density for each wavelength in each well is graphed vs. compound concentration, and the concentration at which the curve crosses a threshold O.D. of 0.01 for each wavelength is reported as the endpoint turbidity assay result. The average of the three wavelengths is used to compare turbidity of compounds.

Chain of CYP3A4(BFC) (P08684 whole entry): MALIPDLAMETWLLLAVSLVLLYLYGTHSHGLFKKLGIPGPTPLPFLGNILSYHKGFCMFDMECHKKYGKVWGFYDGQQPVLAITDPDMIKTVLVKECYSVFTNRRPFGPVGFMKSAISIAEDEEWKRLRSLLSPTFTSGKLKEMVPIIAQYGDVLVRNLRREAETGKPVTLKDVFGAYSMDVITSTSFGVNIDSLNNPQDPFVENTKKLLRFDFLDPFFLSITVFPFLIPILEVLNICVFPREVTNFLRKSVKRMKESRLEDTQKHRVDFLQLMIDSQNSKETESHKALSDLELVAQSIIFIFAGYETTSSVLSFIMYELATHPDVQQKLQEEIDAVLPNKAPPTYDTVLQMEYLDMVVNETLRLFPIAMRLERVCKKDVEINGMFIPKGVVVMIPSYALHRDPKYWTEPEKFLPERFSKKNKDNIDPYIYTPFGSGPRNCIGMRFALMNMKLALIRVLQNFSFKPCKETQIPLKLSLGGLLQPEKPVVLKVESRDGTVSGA

IC50 (CYP3A4(BFC)) [µM]	IC50 (CYP1A2) [µM]	Structure (SMILES)	turbidity threshold (L, M, H) 1.4 [1]	turbidity threshold (L, M, H) 4.5 [1]	turbidity threshold (L, M, H) 6.8 [1]	turbidity threshold (L, M, H) 7.4 [1]
> 10	< 10	COc1ccc(Nc2ccc(C(=O)c3c[nH]c4ncnc(NC(C)(C)C)c34)c(F)n2)cn1 [Compound P-4055, [4-(tert-butylamino)-7H-pyrrolo[2,3-d]pyrimidin-5-yl]-[2-fluoro-6-[(6-methoxy-3-pyridyl)amino]-3-pyridyl]methanone]	M (moderate solubility if the threshold concentration is 31.3 μM to 250 μM)	M (moderate solubility if the threshold concentration is 31.3 μM to 250 μM)	L (low solubility if the threshold concentration is <31.3 μM)	L (low solubility if the threshold concentration is <31.3 μM)
> 10	> 10	COc1ccc(Nc2ccc(C(=O)c3c[nH]c4ncnc(NC5CCC(F)(F)CC5)c34)c(F)n2)cn1 [Compound P-4056, [4-[(4,4-difluorocyclohexyl)amino]-7H-pyrrolo[2,3-d]pyrimidin-5-yl]-[2-fluoro-6-[(6-methoxy-3-pyridyl)amino]-3-pyridyl]methanone]	M (moderate solubility if the threshold concentration is 31.3 μM to 250 μM)	M (moderate solubility if the threshold concentration is 31.3 μM to 250 μM)	M (moderate solubility if the threshold concentration is 31.3 μM to 250 μM)	L (low solubility if the threshold concentration is <31.3 μM)
5 to 10	> 10	COc1ccc(Nc2ccc(C(=O)c3c[nH]c4ncnc(N5CCCCC5)c34)c(F)n2)cn1 [Compound P-4069, [2-fluoro-6-[(6-methoxy-3-pyridyl)amino]-3-pyridyl]-[4-(1-piperidyl)-7H-pyrrolo[2,3-d]pyrimidin-5-yl]methanone]	–	–	–	–
> 10	> 10	O=C(c1ccc(Nc2ccc(C3CC3)nc2)nc1F)c1c[nH]c2ncnc(NCC(F)(F)F)c12 [Compound P-4090, [6-[(6-cyclopropyl-3-pyridyl)amino]-2-fluoro-3-pyridyl]-[4-(2,2,2-trifluoroethylamino)-7H-pyrrolo[2,3-d]pyrimidin-5-yl]methanone]	–	–	–	–
> 10	> 10	Cc1ccc(Nc2ccc(C(=O)c3c[nH]c4ncnc(NCC5CC5)c34)c(F)n2)cn1 [Compound P-4113, [4-(cyclopropylmethylamino)-7H-pyrrolo[2,3-d]pyrimidin-5-yl]-[2-fluoro-6-[(6-methyl-3-pyridyl)amino]-3-pyridyl]methanone]	–	–	–	–
< 10	< 5	COc1ccc(Nc2ccc(C(=O)c3c[nH]c4ncnc(NC5CC5)c34)c(F)n2)cn1 [Compound P-4126, [4-(cyclopropylamino)-7H-pyrrolo[2,3-d]pyrimidin-5-yl]-[2-fluoro-6-[(6-methoxy-3-pyridyl)amino]-3-pyridyl]methanone]	–	–	–	–

Second part, the compound before the results:

Structure (SMILES)	IC50 (CYP3A4(BFC)) [µM]	IC50 (CYP1A2) [µM]	turbidity threshold (L, M, H) 1.4 [1]	turbidity threshold (L, M, H) 4.5 [1]	turbidity threshold (L, M, H) 6.8 [1]	turbidity threshold (L, M, H) 7.4 [1]
CC1CCC(Nc2ncc(Cc3c[nH]c4ncc(Cl)cc34)cn2)CC1 (stereo not drawn) [Compound P-3009, [5-(5-Chloro-1H-pyrrolo[2,3-b]pyridin-3-ylmethyl)-pyrimidin-2-yl]-(4-methyl-cyclohexyl)-amine]	5 to 10	> 10	–	–	–	–
Cc1cnc2[nH]cc(Cc3cnc(Nc4ccc(F)cc4)nc3)c2c1 [Compound P-3010, (4-Fluoro-phenyl)-[5-(5-methyl-1H-pyrrolo[2,3-b]pyridin-3-ylmethyl)-pyrimidin-2-yl]-amine]	> 10	> 10	H (high solubility if the threshold concentration is >250 μm)	L (low solubility if the threshold concentration is <31.3 μM)	L (low solubility if the threshold concentration is <31.3 μM)	M (moderate solubility if the threshold concentration is 31.3 μM to 250 μM)
Clc1ccc(Nc2ncc(Cc3c[nH]c4ncc(Cl)cc34)cn2)cc1 [Compound P-3011, (4-Chloro-phenyl)-[5-(5-chloro-1H-pyrrolo[2,3-b]pyridin-3-ylmethyl)-pyrimidin-2-yl]-amine]	> 10	> 10	–	–	–	–
Fc1ccc(Nc2ncc(Cc3c[nH]c4ncc(Cl)cc34)cn2)cc1 [Compound P-3012, [5-(5-Chloro-1H-pyrrolo[2,3-b]pyridin-3-ylmethyl)-pyrimidin-2-yl]-(4-fluoro-phenyl)-amine]	> 10	> 10	M (moderate solubility if the threshold concentration is 31.3 μM to 250 μM)	M (moderate solubility if the threshold concentration is 31.3 μM to 250 μM)	M (moderate solubility if the threshold concentration is 31.3 μM to 250 μM)	M (moderate solubility if the threshold concentration is 31.3 μM to 250 μM)
Fc1nc(NC2CCC(F)(F)CC2)ccc1Cc1c[nH]c2ncc(Cl)cc12 [Compound P-3013, [5-(5-Chloro-1H-pyrrolo[2,3-b]pyridin-3-ylmethyl)-6-fluoro-pyridin-2-yl]-(4,4-difluoro-cyclohexyl)-amine]	> 10	5 to 10	L (low solubility if the threshold concentration is <31.3 μM)	L (low solubility if the threshold concentration is <31.3 μM)	L (low solubility if the threshold concentration is <31.3 μM)	L (low solubility if the threshold concentration is <31.3 μM)
Fc1ccccc1Nc1ncc(Cc2c[nH]c3ncc(Cl)cc23)cn1 [Compound P-3014, [5-(5-Chloro-1H-pyrrolo[2,3-b]pyridin-3-ylmethyl)-pyrimidin-2-yl]-(2-fluoro-phenyl)-amine]	–	–	H (high solubility if the threshold concentration is >250 μm)	M (moderate solubility if the threshold concentration is 31.3 μM to 250 μM)	M (moderate solubility if the threshold concentration is 31.3 μM to 250 μM)	M (moderate solubility if the threshold concentration is 31.3 μM to 250 μM)
O=C(c1ccc(NC2CCC(F)(F)CC2)nc1Cl)c1c[nH]c2ncnc(NCC(F)(F)F)c12 [Compound P-4057, [2-chloro-6-[(4,4-difluorocyclohexyl)amino]-3-pyridyl]-[4-(2,2,2-trifluoroethylamino)-7H-pyrrolo[2,3-d]pyrimidin-5-yl]methanone]	> 10	> 10	L (low solubility if the threshold concentration is <31.3 μM)	L (low solubility if the threshold concentration is <31.3 μM)	L (low solubility if the threshold concentration is <31.3 μM)	M (moderate solubility if the threshold concentration is 31.3 μM to 250 μM)
CCc1ccc(Nc2ccc(C(=O)c3c[nH]c4ncnc(NCC(C)(C)O)c34)c(F)n2)cn1 [Compound P-4064, [6-[(6-ethyl-3-pyridyl)amino]-2-fluoro-3-pyridyl]-[4-[(2-hydroxy-2-methyl-propyl)amino]-7H-pyrrolo[2,3-d]pyrimidin-5-yl]methanone]	> 10	> 10	–	–	–	–
